Patent publication US20250186554A1, “FORMULATIONS COMPRISING ACID-NEUTRALIZING POLYMER FOR ORAL ADMINISTRATION OF GLUCAGON-LIKE PEPTIDE-1 AND ANALOGS THEREOF” (Entera Bio Ltd., priority 2022, published 2025)

Legend:
[1] = pH upon addition of test substance to 0.1 M HCl solution (pH 1.2), pH meter; type: physicochemical
Experimental: Test substances were dissolved in various volumes of 0.1 M HCl solution (pH 1.2) at concentrations of 1, 2, 4, 10, 20, 50, 100 and 150 mg/ml. The solution pH was determined using an MP-103 pH-meter (MRC, Israel) equipped with ELC-10-00 electrode (MRC, Israel) or with a thin electrode HI1083 (HANNA instruments Inc.), shortly after dissolution and up to 26 hours later in order to ensure that the pH remained stable. The highest pH value obtained during the experimental time period was recorded in order to compare the acid-neutralizing capacity of each substance.
SNAC and the basic polymers sodium alginate, sodium carboxymethylcellulose in non-crosslinked (Na-CMC) and crosslinked (croscarmellose sodium, CCS) forms, and sodium starch glycolate (SSG) were dissolved in various volumes of 0.1 M HCl solution (pH 1.2) at concentrations of 1, 2, 4, 10, 20, 50, 100 and 150 mg/ml, and the solution pH was determined using an MP-103 pH-meter (MRC, Israel) equipped with ELC-10-00 electrode (MRC, Israel), as described in the Materials and Methods section hereinabove.
In order to obtain a beneficial rise in pH with a reduced loss of the active form of the absorption enhancer, the effect of various concentrations of different polymers containing carboxylate groups (sodium alginate, sodium starch glycolate, sodium carboxymethylcellulose, and croscarmellose sodium) on pH upon addition to a 0.1 M HCl solution (pH 1.2) was also evaluated. FIG. 2A presents pH values determined using an MP-103 pH-meter (MRC, Israel) equipped with ELC-10-00 electrode (MRC, Israel) and FIG. 2B presents pH values determined using an MP-103 pH-meter (MRC, Israel) equipped with a thin electrode HI1083 (HANNA instruments Inc.).

[2] = in vivo; cited from earlier work

Q: With `O=C(O)CCCCCCCNC(=O)c1ccccc1O` [SNAC, sodium 8-N-(2-hydroxybenzoyl)aminocaprylate] as the molecule, how does the “pH 5 minutes after dissolution” value ([1]; 10 mg/ml SNAC added to HCl solution (pH 1.2)) read?
A: about 1.5

Q: And the “pH 5 minutes after dissolution” value ([1]; 20 mg/ml SNAC added to HCl solution (pH 1.2))?
A: 6.5

Q: And the “pH 5 minutes after dissolution” value ([1]; 100 mg/ml SNAC added to HCl solution (pH 1.2))?
A: about 7.5

Q: Which half-life [2] does the source give for “Semaglutide: fatty acid derivative of a GLP-1 homolog” here?
A: about 7 days
